Target: T1, human RXFP1 (Homo sapiens, UniProt Q9HBX9)
T1 construct: expressed in transfected cells
T1 sequence (Q9HBX9 1-757): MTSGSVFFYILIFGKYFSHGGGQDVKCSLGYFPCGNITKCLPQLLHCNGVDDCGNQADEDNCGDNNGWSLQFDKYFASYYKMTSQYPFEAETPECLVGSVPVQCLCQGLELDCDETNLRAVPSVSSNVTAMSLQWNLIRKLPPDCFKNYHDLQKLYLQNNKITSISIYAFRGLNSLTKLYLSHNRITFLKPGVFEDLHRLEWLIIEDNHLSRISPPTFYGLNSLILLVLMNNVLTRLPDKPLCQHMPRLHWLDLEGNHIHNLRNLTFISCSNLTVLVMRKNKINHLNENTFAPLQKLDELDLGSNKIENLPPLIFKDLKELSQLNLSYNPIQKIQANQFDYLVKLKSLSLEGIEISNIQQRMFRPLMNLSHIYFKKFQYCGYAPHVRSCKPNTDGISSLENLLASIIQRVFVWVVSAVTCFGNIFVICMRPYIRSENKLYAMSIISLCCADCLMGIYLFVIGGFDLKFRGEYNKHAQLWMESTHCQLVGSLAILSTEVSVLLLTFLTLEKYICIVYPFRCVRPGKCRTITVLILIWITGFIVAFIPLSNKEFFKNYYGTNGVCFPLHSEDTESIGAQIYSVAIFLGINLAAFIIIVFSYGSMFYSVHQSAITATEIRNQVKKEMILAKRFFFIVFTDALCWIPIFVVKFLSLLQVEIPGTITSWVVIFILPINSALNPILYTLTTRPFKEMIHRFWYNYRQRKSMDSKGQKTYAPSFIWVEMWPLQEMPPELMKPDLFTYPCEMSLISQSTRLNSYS
Assay: RXFP1 cAMP assay (hRXFP1 HEK293 cAMP assay, HTRF)
Format: cell-based
Settings: HEK293 cells stably expressing human RXFP1, 30 min at room temperature, read-out: cAMP hRXFP1 HEK293 Assay EC50
Outline: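 HEK293 cells stably expressing human RXFP1 were suspended in HBSS (Ca/Mg) with 20 mM HEPES, 0.05% BSA and 0.5 mM IBMX, then treated with compounds (0.010 nM–50 μM, 2% DMSO final) for 30 min at room temperature. Intracellular cAMP was measured by HTRF, and potency was derived from 4-parameter logistic fits.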

COc1ccc(-c2cccc3c2CN(C(=O)N(C)c2ccccc2)C3)cc1C(=O)N[C@H]1[C@@H](C(=O)Nc2ccc(F)c(C(F)(F)F)c2)[C@H]2CC[C@@H]1/C2=C\C1CC1 [compound 886]
EC50: 2.7 nM

O=C(N[C@H]1[C@@H](C(=O)Nc2ccc(F)c(C(F)(F)F)c2)[C@H]2CC[C@@H]1/C2=C\C1CC1)c1cc(C2=NOC3COCC23)ccc1OCCC(F)(F)F (stereo partly drawn) [compound 780]
EC50: 1.8 nM

O=C(N[C@H]1[C@@H](C(=O)Nc2ccc(F)c(C(F)(F)F)c2)[C@H]2CC[C@@H]1/C2=C\C1CC1)c1cc(C2=NOC3CC(CO)CC23)ccc1OCCCF (stereo partly drawn) [compound 788]
EC50: 4.3 nM

COc1ccc(C2CC3CN(C(=O)OC(C)(C)C)CC32)cc1C(=O)N[C@H]1[C@@H](C(=O)Nc2ccc(F)c(C(F)(F)F)c2)[C@H]2CC[C@@H]1/C2=C\C1CC1 (single isomer, unassigned) [compound 731]
EC50: 10 nM

COc1ccc(C2=NOC(CCO)C2)cc1C(=O)N[C@@H]1C2CCC(/C2=C/C2CC2)[C@@H]1C(=O)Nc1ccc(F)c(C(F)(F)F)c1 (stereo partly drawn) [compound 398]
EC50: 37 nM

COc1ccc(C2CCCN2C(=O)OC(C)(C)C)cc1C(=O)N[C@@H]1C2CCC(/C2=C/C2CC2)[C@@H]1C(=O)Nc1ccc(F)c(C(F)(F)F)c1 (single isomer, unassigned) [compound 694]
EC50: 796 nM

COc1cc(F)c(F)cc1C(=O)N[C@@H]1C2CCC(/C2=C/Cc2ccccc2)[C@@H]1C(=O)Nc1ccc(F)c(C(F)(F)F)c1 (stereo partly drawn) [compound 57]
EC50: 550 nM

COc1ccc(C2=NOC(CO)C2)cc1C(=O)N[C@@H]1C2CCC(/C2=C/C2CC2)[C@@H]1C(=O)Nc1ccc(F)c(C(F)(F)F)c1 (stereo partly drawn) [compound 382]
EC50: 118 nM

COc1ccc(C2=NO[C@H]3COC[C@@H]23)cc1C(=O)N[C@H]1[C@@H](C(=O)Nc2ccc(F)c(C(F)(F)F)c2)[C@H]2CC[C@@H]1/C2=C\C(C)C [compound 827]
EC50: 3.1 nM

COc1ccc(C2=CCNCC2)cc1C(=O)N[C@@H]1C2CCC(C2=C(C)C)[C@@H]1C(=O)Nc1ccc(F)c(C(F)(F)F)c1 (stereo partly drawn) [compound 148]
EC50: 910 nM

COc1cc(C)c(C2=NOC3CC(CO)CC23)cc1C(=O)N[C@H]1[C@@H](C(=O)Nc2ccc(F)c(C(F)(F)F)c2)[C@H]2CC[C@@H]1/C2=C\C1CC1 (stereo partly drawn) [compound 740]
EC50: 3.4 nM

COc1ccc(C2=NOC3CN(C(=O)OC(C)(C)C)CC23)cc1C(=O)N[C@@H]1C2CCC(/C2=C/C2CC2)[C@@H]1C(=O)Nc1ccc(F)c(C(F)(F)F)c1 (stereo partly drawn) [compound 435]
EC50: 49 nM

CNC(=O)OC(C(=O)NOC)c1ccc(F)c(-c2ccc(OC)c(C(=O)N[C@@H]3C4CCC(/C4=C/C4CC4)[C@@H]3C(=O)Nc3ccc(F)c(C(F)(F)F)c3)c2)c1 (stereo partly drawn) [compound 234]
EC50: 1 nM

O=C(N[C@H]1[C@@H](C(=O)Nc2ccc(F)c(C(F)(F)F)c2)[C@H]2CC[C@@H]1/C2=C\C1CC1)c1cc(C2=NOC3CC(CO)CC23)ccc1OCCCF (stereo partly drawn) [compound 787]
EC50: 4.2 nM

COc1ccc(C2=NOC(C(=O)O)C2)cc1C(=O)N[C@@H]1C2CCC(/C2=C/C2CC2)[C@@H]1C(=O)Nc1ccc(F)c(C(F)(F)F)c1 (single isomer, unassigned) [Example 385]
EC50: 8 nM

COc1cc(F)c(F)cc1C(=O)N[C@@H]1C2CCC(/C2=C/C(=O)OC(C)(C)C)[C@@H]1C(=O)Nc1ccc(F)c(C(F)(F)F)c1 (stereo partly drawn) [compound 8]
EC50: 110 nM

COc1ccc(C2=NOC3CC(O)CC23)cc1C(=O)N[C@H]1[C@@H](C(=O)Nc2ccc(F)c(C(F)(F)F)c2)[C@H]2CC[C@@H]1/C2=C\C1CCC1 (mixture of isomers) [Example 406, (1R,2S,3R,4R,Z)-7-(cyclobutylmethylene)-N-(4-fluoro-3-(trifluoromethyl)phenyl)-3-(5-(5-hydroxy-3a,5,6,6a-tetrahydro-4H-cyclopenta[d]isoxazol-3-yl)-2-methoxybenzamido)bicyclo[2.2.1]heptane-2-carboxamide]
EC50: 48 nM

COc1ccc(-c2noc(CCO)c2CCO)cc1C(=O)N[C@H]1[C@@H](C(=O)Nc2ccc(F)c(C(F)(F)F)c2)[C@H]2CC[C@@H]1/C2=C\C1CC1 [compound 531]
EC50: 22.7 nM

COc1ccc(C2=NOC3COCC23)cc1C(=O)N[C@H]1[C@@H](C(=O)NC2CCC(C(F)(F)F)C2)[C@H]2CC[C@@H]1/C2=C\C1CC1 (single isomer, unassigned) [Example 589]
EC50: 83.5 nM

COc1ccc(-c2nn[nH]n2)cc1C(=O)N[C@@H]1C2CCC(C2=C(C)C)[C@@H]1C(=O)Nc1ccc(F)c(C(F)(F)F)c1 (stereo partly drawn) [Example 144]
EC50: 2100 nM

COc1ccc(-c2cc(C(=O)O)ccc2F)cc1C(=O)N[C@@H]1C2CCC(/C2=C/c2cn(C)nn2)[C@@H]1C(=O)Nc1ccc(F)c(C(F)(F)F)c1 (stereo partly drawn) [compound 327]
EC50: 2040 nM

COc1ccc(-c2cc(C(OC(=O)NC3CCC3)C(=O)O)ccc2F)cc1C(=O)N[C@H]1[C@@H](C(=O)Nc2ccc(F)c(C(F)(F)F)c2)[C@H]2CC[C@@H]1/C2=C\C1CC(F)(F)C1 (stereo partly drawn) [compound 939]
EC50: 0.6 nM

CONC(=O)OC(c1ccc(F)c(-c2ccc(OC)c(C(=O)N[C@@H]3C4CCC(/C4=C/C4CC4)[C@@H]3C(=O)Nc3ccc(F)c(C(F)(F)F)c3)c2)c1)C(F)(F)F (stereo partly drawn) [compound 214]
EC50: 2 nM

COc1ccc(-c2cc(C3=NOC(C(=O)O)C3)ccc2F)cc1C(=O)N[C@H]1[C@@H](C(=O)Nc2ccc(F)c(C(F)(F)F)c2)[C@H]2CC[C@@H]1/C2=C\C1CCCC1 (stereo partly drawn) [compound 913]
EC50: 9 nM

COc1cc(C)c(-c2nnc(CO)s2)cc1C(=O)N[C@H]1[C@@H](C(=O)Nc2ccc(F)c(C(F)(F)F)c2)[C@H]2CC[C@@H]1/C2=C\C1CC1 [compound 808]
EC50: 4.2 nM

COc1c(F)cc(C2=NOC3CC(CO)CC23)cc1C(=O)N[C@H]1[C@@H](C(=O)Nc2ccc(F)c(C(F)(F)F)c2)[C@H]2CC[C@@H]1/C2=C\CC(O)C(F)(F)F (stereo partly drawn) [compound 836]
EC50: 4.1 nM

COC(=O)N1Cc2cccc(-c3ccc(OC)c(C(=O)N[C@@H]4C5CCC(/C5=C/C5CC5)[C@@H]4C(=O)Nc4ccc(F)c(C(F)(F)F)c4)c3)c2C1 (stereo partly drawn) [compound 881]
EC50: 3.1 nM

COc1ccc(-c2ccnc3c2ncn3CC(=O)O)cc1C(=O)N[C@@H]1C2CCC(/C2=C/C(F)(F)F)[C@@H]1C(=O)Nc1ccc(F)c(C(F)(F)F)c1 (stereo partly drawn) [compound 314]
EC50: 5 nM

COc1ccc(-c2cc([C@H](OC(=O)NC3CC3)C(F)(F)F)ccc2F)cc1C(=O)N[C@H]1[C@@H](C(=O)Nc2ccc(F)c(C(F)(F)F)c2)[C@H]2CC[C@@H]1/C2=C\C1CCCC1 [compound 927]
EC50: 0.4 nM

COc1ccc(-c2cc([C@H](O)C(F)(F)F)ccc2F)cc1C(=O)N[C@H]1[C@@H](C(=O)Nc2ccc(F)c(C(F)(F)F)c2)[C@H]2CC[C@@H]1/C2=C\C1CCCC1 [compound 920]
EC50: 2.4 nM

COc1ccc(C2=NOC(CC(=O)O)C2)cc1C(=O)N[C@@H]1C2CCC(/C2=C/C2CC2)[C@@H]1C(=O)Nc1ccc(F)c(C(F)(F)F)c1 (stereo partly drawn) [compound 392]
EC50: 50 nM

COc1ccc(-c2cc([C@H](O)C(F)(F)F)ccc2F)cc1C(=O)N[C@H]1[C@@H](C(=O)Nc2ccc(F)c(C(F)(F)F)c2)[C@H]2CC[C@@H]1/C2=C\C1CCC1 [compound 921]
EC50: 8.2 nM

COc1cc(F)c(F)cc1C(=O)N[C@@H]1C2CCC(/C2=C/c2ccncc2)[C@@H]1C(=O)Nc1ccc(F)c(C(F)(F)F)c1 (stereo partly drawn) [compound 16]
EC50: 770 nM

COc1ccc(C2=NOC3COCC23)cc1C(=O)N[C@H]1[C@@H](C(=O)N[C@H](C)C2CCCC2)[C@H]2CC[C@@H]1/C2=C\C1CC1 (stereo partly drawn) [compound 535]
EC50: 24 nM

COc1ccc(C2=NOC3COCC23)cc1C(=O)N[C@H]1[C@@H](C(=O)NCc2ccccc2C)[C@H]2CC[C@@H]1/C2=C\C1CC1 (stereo partly drawn) [compound 585]
EC50: 78.3 nM

COc1ccc(C2=NOC3CC(C(C)(C)O)CC23)cc1C(=O)N[C@H]1[C@@H](C(=O)Nc2ccc(F)c(C(F)(F)F)c2)[C@H]2CC[C@@H]1/C2=C\C1CC1 (single isomer, unassigned) [compound 464]
EC50: 3.2 nM

COc1ccc(-c2cc(C(=O)O)ccc2F)cc1C(=O)N[C@H]1[C@@H](C(=O)Nc2ccc(C)c(C(F)(F)F)c2)[C@H]2CC[C@@H]1/C2=C\C1CC1 [Example 265, 3′-(((1R,2R,3S,4R,Z)-7-(cyclopropylmethylene)-3-((4-methyl-3-(trifluoromethyl)phenyl)carbamoyl)bicyclo[2.2.1]heptan-2-yl)carbamoyl)-6-fluoro-4′-methoxy-[1,1′-biphenyl]-3-carboxylic acid]
EC50: 5 nM

COc1ccc(C2=NOC3COCC23)cc1C(=O)N[C@H]1[C@@H](C(=O)NC2(CO)CCCC2)[C@H]2CC[C@@H]1/C2=C\C1CC1 (stereo partly drawn) [compound 651]
EC50: 269 nM

COc1ccc(C2=NOC3CC(C(N)=O)CC23)cc1C(=O)N[C@H]1[C@@H](C(=O)NCC(C)(C)C)[C@H]2CC[C@@H]1/C2=C\C1CC1 (stereo partly drawn) [compound 516]
EC50: 17.6 nM

— US20250221966A1, “RXFP1 AGONISTS” (BRISTOL-MYERS SQUIBB COMPANY, priority 2021, published 2025)
